In BindingDB's records for PubMed 33822624 (Ocean University of China, 2021):

Molecular target: TCF7L2 (Homo sapiens)
Test: Inhibition of beta-catenin/Tcf4 (unknown origin) in human SW480 cells assessed as reduction in cyclin D1 level qRT-PCR analysis

For `CC[C@H](C)[C@H](NC(=O)[C@H]1Cc2cn(nn2)CCCC[C@H](NC(=O)[C@H](CC(C)C)NC(=O)[C@H](CO)NC(=O)[C@H](CCCNC(=N)N)NC(=O)[C@H](CCC(=O)O)NC(=O)[C@H](CCCNC(=N)N)NC(=O)[C@H](Cc2cnc[nH]2)NC(=O)[C@H]2Cc3cn(nn3)CCCC[C@H](NC(=O)[C@H](CO)NC(=O)[C@H](CC(C)C)NC(C)=O)C(=O)N[C@@H](CCC(=O)O)C(=O)N[C@@H](CCC(N)=O)C(=O)N[C@@H](CC(C)C)C(=O)N2)C(=O)N[C@@H]([C@@H](C)O)C(=O)N[C@@H](CC(C)C)C(=O)N[C@@H](CCCNC(=N)N)C(=O)N1)C(=O)N[C@@H](CCC(N)=O)C(=O)N[C@@H](CCCNC(=N)N)C(=O)N[C@@H](CC(C)C)C(=O)N[C@@H](CC(C)C)C(=O)N[C@@H](Cc1ccccc1)C(N)=O`, which IC50 is on record?
Its IC50 is 4.2 µM.
